Experiments:
[1] = target: T1, GTP-loaded KRAS4b (amino acids 1-169) G12C/C118S protein (Homo sapiens, UniProt P01116, C118S/G12C); experiment: Covalent cysteine 12 modification by MALDI-TOF MS, GTP-loaded KRAS G12C; assay type: binding; conditions: 15 minutes reaction time point
T1 construct: KRAS4b (amino acids 1-169) G12C/C118S protein; made in house
Method: (§1) Biological Example 1: Covalent Cysteine 12 Modification Analysis Using Matrix Assisted Laser Desorption Ionization-Time of Flight Mass Spectrometry (MALDI-TOF MS)
(§2) MALDI-TOF MS analysis was performed using 1 μM protein (KRAS G12C), and 1:2.5 protein to compound ratio.
(§3) Reaction: 1 μM of GppNHp, GTP, or GDP-loaded KRAS4b (amino acids 1-169) G12C/C118S protein (produced in-house by Protein Expression Laboratory, FNLCR/Leidos Biomed) in 20 mM 4-(2-hydroxyethyl)-1-piperazineethanesulfonic acid (HEPES) buffer containing 150 mM NaCl, 1 mM MgCl2, pH 7.3 was prepared freshly before assay. Twelve-μL aliquots of protein were dispensed onto low volume 384-well plate, then 30 nL of tested compounds from 1 mM DMSO stocks were added to appropriate wells using ECHO 555 acoustic liquid handler (Labcyte Inc.). For each reaction/assay, three blanks were prepared by mixing 12 μL of protein solution with 30 nL DMSO. The contents of the wells were carefully mixed by aspiration, and then each plate was sealed with an adhesive cover, centrifuged at 2000 g for 1 minute, and kept in the dark at room temperature until 5 min, 15 min, 30 min, 2 h, or 6 h collections.
(§4) Target pretreatment: Before each assay MALDI target (Bruker MPT 384 ground steel BC) was pre-treated by pipetting on each spot 0.75 μL of saturated sinapinic acid in acetonitrile (ACN).
(§5) Sample preparation: At collection time point, 2 μL of reaction mixtures were pipetted out into 15 μL MALDI matrix solution (saturated solution of sinapinic acid in 1:1 ACN:water solution containing 0.75% trifluoroacetic acid (TFA)) deposited on 384 well polypropylene plate. Resulting solution was mixed by aspiration, centrifuged at 2000 g for 1 minute, then 1.5 μL aliquots were dispensed on pre-treated MALDI target using Beckman Coulter Biomek FXP 96/384-Span-8 Laboratory Automation Workstation. Finally, the MALDI target was dried under mild vacuum to produce spots with fine crystalline structure.
(§6) Measurements: MALDI-TOF measurements were performed on a Bruker Daltonics rapiflex Tissuetyper TOF-TOF mass spectrometer using linear mode and mass range from 18.6 to 21.6 kDa. Detector gain was set to 3.3×(483 V), sample rate to 5 GS/s, real time smoothing to medium (175 MHz), laser smart beam pattern was set to: “MS Thin Layer M5”, and the laser frequency was 10000 Hz. Spectra were automatically collected using custom AutoXecute method. Laser power was auto adjusted using fuzzy control. The peak selection range was set to be between 19000 and 21500 Da. Peak evaluation uses half width parameter set to be smaller than 40 Da for processed spectrograms (centroid peak detection; smoothed by SavitzkyGolay algorithm using 7 m/z width and 2 cycles; baseline was subtracted using median algorithm with flatness 1 and median level 0.01). Fuzzy control used Proteins/Oligonucleotides protocol with minimum half width 1/10 times above threshold. Up to 40000 satisfactory shots were collected in 10000 shot steps. Dynamic termination was implemented to finish data collection when peak signal/noise ratio was reaching value of 50.
(§7) Spectra processing: Spectra were smoothed by SavitzkyGolay algorithm using 7 m/z width and three cycles. Centroid peak detection algorithm was used with signal to noise threshold set to 6, relative intensity threshold 4%, peak width 10 m/z and median baseline subtraction using flatness of 1 and median level of 0.01. Peak intensity and area under the peak were evaluated and recorded for all peaks between 19,300 Da and 21,550 Da.
(§8) Calculation of percent modification: Percent modification was calculated as a ratio of peak height for protein modified by compound to sum of peak height of remaining protein plus peak height for protein modified by compound. If multiple modifications were observed each was calculated as a ratio of peak height for given modification versus sum of peak heights for all observed protein species. Data reported in Table 4 are from 15 minutes reaction time point. […]

[2] = target: T2, GppNHp-loaded KRAS4b (amino acids 1-169) G12C/C118S protein (Homo sapiens, UniProt P01116, C118S/G12C); experiment: Covalent cysteine 12 modification by MALDI-TOF MS, GppNHp-loaded KRAS G12C; assay type: binding; conditions: 15 minutes reaction time point
T2 construct: KRAS4b (amino acids 1-169) G12C/C118S protein; made in house
Method: as §1, §2, §3, §4, §5, §6, §7, §8

[3] = target: T3, GDP-loaded KRAS4b (amino acids 1-169) G12C/C118S protein (Homo sapiens, UniProt P01116, C118S/G12C); experiment: Covalent cysteine 12 modification by MALDI-TOF MS, GDP-loaded KRAS G12C; assay type: binding; conditions: 15 minutes reaction time point
T3 construct: KRAS4b (amino acids 1-169) G12C/C118S protein; made in house
Method: as §1, §2, §3, §4, §5, §6, §7, §8

pERK in NCI-H358 cells = experiment: Cell-based pERK HTRF assay (pERK inhibition in H358 cells); conditions: 30 min incubation
Method: Biological Example 3: Cell-Based pERK HTRF Assay
pERK assays (Perkin Elmer) were used to determine the effectiveness of compounds of the present disclosure in disrupting KRAS G12C protein/effector signaling in cells.
On Day 1, cells (NCI-H358) were seeded into 96-well plates at 4×10^4 cells/well in complete growth media (RPMI, 10% FBS).
On Day 2, cells were treated with compounds at 0.25% DMSO. The source plate was created with compounds diluted in media at 5-fold the final assay concentration. The compounds were run in a 9-point concentration curve starting at 75 μM, with a 3-fold dilution between concentrations. 20 μL was transferred onto the cell plates (final volume in wells was 100 μL). Plates were harvested after 30 min incubation by aspirating media and adding kit-supplied 1× supplemented lysis buffer to all wells (75 μl per well). Plates were then placed on a plate shaker and incubated at 850 rpm for an additional 30 min.
Antibody mixture solution was prepared by diluting aliquoted d2 and Eu Cryptate antibodies 1:20 in kit supplied detection buffer, then mixed the diluted antibodies solutions (1:1 v:v). 4 μL of this solution was then added to a 384-well detection plate (Perkin Elmer; 6008230).
Samples were homogenized by pipetting up and down and then transferred (16 μL of cell lysates) from the 96-well cell culture plate to two wells of the HTRF 384-well detection plate containing the antibody solution. Plates were centrifuged (524 g for […]) and allowed to incubate between 4 and 24 h at room temperature. Maximum signal is reached after 4 h incubation time and remains stable over a period of 24 hours. Therefore, readings can be made between 4 and 24 h of incubation. Plates were centrifuged again (524 g for 1 min), and analyzed on the En Vision plate reader using the following settings: Excitation 320 nm, Bandwidth 75 nm; Emission 615 nm, Bandwidth 85 nm; Gain 100%; Flashes 100; Lag 60 μs.
The percent of modification of GppNHp, GTP, or GDP loaded KRAS G12C by MALDI-TOF MS, biochemical Raf1 RBD-KRAS G12C-GppNHp disruption assay IC50, and pERK inhibition IC50 of selected compounds described herein are shown in Table 4. For percent of modification at 15 minutes (MALDI-TOF MS) of GppNHp, GTP, or GDP loaded KRAS G12C: A: percent of modification ≥70%; B: 50≤percent of modification <70%; C: 10%≤percent of modification <50%; D: percent of modification <10%. […] For pERK inhibition in H358 cell assay: A: IC50≤0.1 μM; B: 0.1 μM<IC50≤1 μM; C: IC50>1 μM. Blanks in the table represent that compound was not tested in the indicated assay.

Row | SMILES | GTP-KRAS G12C percent of modification [1] | GppNHp-KRAS G12C percent of modification [2] | GDP-KRAS G12C percent of modification [3] | IC50 (pERK in NCI-H358 cells; Homo sapiens, NCI-H358, 0.5 h) [µM] | IC50 (pERK in NCI-H358 cells) [µM]
1 | C=CC(=O)N1CC[C@@H](N(C)c2nc(OC[C@@]34CCCN3C[C@H](F)C4)nc3c(F)c(-c4ccc(F)c5sc(N)c(C#N)c45)c(Cl)cc23)[C@H]1C (atropisomer, axis not shown) [Compound 51] | A (percent of modification ≥70%) | A (percent of modification ≥70%) | – | – | –
2 | C=CC(=O)N1CC[C@@H](N(C)c2nc(OC[C@@]34CCCN3C[C@H](F)C4)nc3c(F)c(-c4ccc(F)c5sc(N)c(C#N)c45)c(C(F)(F)F)cc23)[C@@H]1C (atropisomer, axis not shown) [Compound 70] | A (percent of modification ≥70%) | A (percent of modification ≥70%) | A (percent of modification ≥70%) | – | –
3 | C[C@@H]1[C@H](N(C)c2nc(OC[C@@]34CCCN3C[C@H](F)C4)nc3c(F)c(-c4ccc(F)c5sc(N)c(C#N)c45)c(C(F)(F)F)cc23)CCN1C(=O)[C@@H](F)Cl (atropisomer, axis not shown) [Compound 184] | D (percent of modification <10%) | D (percent of modification <10%) | D (percent of modification <10%) | 0.1 to 1 | –
4 | C[C@@H]1[C@H](N(C)c2nc(OC[C@@]34CCCN3C[C@H](F)C4)nc3c(F)c(-c4ccc(F)c5sc(N)c(C#N)c45)c(C(F)(F)F)cc23)CCN1C(=O)[C@@H](F)Cl (atropisomer, axis not shown) [Compound 185] | A (percent of modification ≥70%) | A (percent of modification ≥70%) | A (percent of modification ≥70%) | – | < 0.1
5 | C[C@@H]1[C@H](N(C)c2nc(OC[C@@]34CCCN3C[C@H](F)C4)nc3c(F)c(-c4ccc(F)c5sc(N)c(C#N)c45)c(C(F)(F)F)cc23)CCN1C(=O)[C@H](F)Cl (atropisomer, axis not shown; (aS)) [Compound 182, 2-amino-4-((R)-4-(((2R,3R)-1-((R)-2-chloro-2-fluoroacetyl)-2-methylpyrrolidin-3-yl)(methyl)amino)-8-fluoro-2-(((2R,7aS)-2-fluorotetrahydro-1H-pyrrolizin-7a(5H)-yl)methoxy)-6-(trifluoromethyl)quinazolin-7-yl)-7-fluorobenzo[b]thiophene-3-carbonitrile] | D (percent of modification <10%) | D (percent of modification <10%) | D (percent of modification <10%) | 0.1 to 1 | –
6 | C=CC(=O)N1CC[C@@H](N(C)c2nc(OC[C@@]34CCCN3C[C@H](F)C4)nc3c(F)c(-c4ccc(F)c5sc(N)c(C#N)c45)ccc23)[C@H]1C [Compound 13] | A (percent of modification ≥70%) | A (percent of modification ≥70%) | A (percent of modification ≥70%) | – | –
7 | C=CC(=O)N1CC[C@@H](N(CC)c2nc(OC[C@@]34CCCN3C[C@H](F)C4)nc3cc(-c4ccc(F)c5sc(N)c(C#N)c45)c(F)cc23)[C@H]1C [Compound 21, 4-(4-(((2R,3R)-1-acryloyl-2-methylpyrrolidin-3-yl)(ethyl)amino)-6-fluoro-2-(((2R,7aS)-2-fluorotetrahydro-1H-pyrrolizin-7a(5H)-yl)methoxy)quinazolin-7-yl)-2-amino-7-fluorobenzo[b]thiophene-3-carbonitrile] | A (percent of modification ≥70%) | A (percent of modification ≥70%) | A (percent of modification ≥70%) | – | –
8 | C=CC(=O)N1C[C@H](C)N(c2nc(OC[C@]34CCCN3C[C@@H](F)C4)nc3c(F)c(-c4ccc(F)c5sc(N)c(C#N)c45)c(C(F)(F)F)cc23)C[C@H]1C [Compound 26] | – | B (50≤percent of modification <70%) | C (10%≤percent of modification <50%) | – | –
9 | C=CC(=O)N1CC[C@@H](N(CC)c2nc(OC[C@@]34CCCN3C[C@H](F)C4)nc3c(F)c(-c4ccc(F)c5sc(N)c(C#N)c45)c(Cl)cc23)[C@H]1C [Compound 85] | B (50≤percent of modification <70%) | A (percent of modification ≥70%) | – | < 0.1 | –
10 | C=CC(=O)N1CC[C@@H](N(C)c2nc(O[C@@H](C)[C@@H]3C[C@@H](OC)CN3C)nc3c(F)c(-c4ccc(F)c5sc(N)c(C#N)c45)c(C(F)(F)F)cc23)[C@H]1C [Compound 192] | A (percent of modification ≥70%) | A (percent of modification ≥70%) | A (percent of modification ≥70%) | – | –
